Experiments:
Assay type in all cases: binding
[1] = molecular target: HLA A*3001 (Homo sapiens, UniProt P04439, D140H/D185E/E176W/F33S/G80R/H175R/K168Q/R138E/R41S); assay: biochemical
[2] = molecular target: HLA A*3201 (Homo sapiens, UniProt P04439, A270S/D101S/D185E/E176V/E277Q/F133L/G103R/G107R/G231S/H175R/I121M/I218V/I322F/K168Q/L105A/L300P/L318F/M331R/P208A/P217A/Q94H/R106L/R138Q/S129P/T104I/T323A/T345S/V100E/V321M/V358M); assay: biochemical
[3] = molecular target: HLA A*6802 (Homo sapiens, UniProt P04439, A269V/D140Y/D185E/E176V/E277Q/E87N/F33Y/G231S/I121R/I166T/I218V/L180W/L300P/L318F/N151K/P208A/P217A/Q86R/R138H/R169H/S129P/T345S/V36M)
[4] = molecular target: HLA B*0801 (Homo sapiens, UniProt P01889, A93T/A95T/D138N/E176V/E187T/K202T/Q94N/R180D/S35A/V36M/Y33D/Y91F); assay: biochemical
[5] = molecular target: HLA B*1501 (Homo sapiens, UniProt P01889, A329T/A93T/A95T/C349S/D201E/D98Y/E187L/E204Q/E69M/E70A/K202T/N87E/Q94N/R155S/R180W/S121R/S35A/S48A/V306I/V36M/Y140S/Y91S); assay: biochemical
[6] = molecular target: HLA B*1503 (Homo sapiens, UniProt P01889, A329T/A93T/A95T/C349S/D201E/D98Y/E187L/E204Q/K202T/N87E/Q94N/R155S/R180L/S121R/S35A/V306I/V36M/Y140S/Y91S); assay: biochemical
[7] = molecular target: HLA B*3501 (Homo sapiens, UniProt P01889, A329T/A93T/A95T/C349S/D201E/D98Y/E176V/E187L/E204Q/E69T/I218V/K202T/L119I/Q94N/R155S/R180L/S121R/S35A/S48A/T118I/V127L/V306I/V36M/Y140S/Y91F)
[8] = molecular target: HLA B*5101 (Homo sapiens, UniProt P01889, A329T/A93T/A95T/C349S/D138N/D201E/D98Y/E187L/E204Q/E69T/G107R/I218V/K202T/L105A/L119W/N104I/Q94N/R106L/R155S/R180L/S101N/S121T/S35A/S48A/V306I/V36M/Y195H/Y91F)
[9] = molecular target: HLA B*5301 (Homo sapiens, UniProt P01889, A329T/A93T/A95T/C349S/D201E/D98Y/E176V/E187L/E204Q/E69T/G107R/I218V/K202T/L105A/L119I/N104I/Q94N/R106L/R155S/R180L/S101N/S121R/S35A/S48A/T118I/V127L/V306I/V36M/Y140S/Y91F)
[10] = molecular target: HLA B*5401 (Homo sapiens, UniProt P01889, A329T/C349S/D138N/D201E/E176V/E187T/E204Q/E69G/I76V/K202T/L119W/R155S/R180L/S121T/S35A/S48A/V127L/V306I/V36M/Y140L)
[11] = molecular target: HLA B*5801 (Homo sapiens, UniProt P01889, A329T/C349S/D201E/D98Y/E176V/E187L/E204Q/E69T/G107R/I218V/I90N/K202T/L105A/L119I/N104I/N87E/Q89R/Q94S/R106L/R155S/R180L/R86G/S101N/S121R/S35A/S48A/T118I/V127L/V306I/V36M/Y140S/Y91M)
[12] = molecular target: HLA B*5802 (Homo sapiens, UniProt P01889, A329T/C349S/D201E/D98Y/E176V/E187L/E204Q/E69T/G107R/I218V/I90N/K202T/L105A/N104I/N87E/Q89R/Q94S/R106L/R155S/R180L/R86G/S101N/S121W/S35A/S48A/V127L/V306I/V36M/Y140S/Y91M)
[13] = molecular target: H-2 D^b (Mus musculus, UniProt P01899)
[14] = molecular target: H-2 D^d (Mus musculus, UniProt P01900)
[15] = molecular target: H-2 K^d (Mus musculus, UniProt P01902)
[16] = molecular target: H-2 K^k (Mus musculus, UniProt P04223)
Sequence of H-2 K^k (P01887 21-119): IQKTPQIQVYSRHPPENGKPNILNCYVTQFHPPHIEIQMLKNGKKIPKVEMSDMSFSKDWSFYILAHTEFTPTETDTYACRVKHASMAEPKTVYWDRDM
Sequence of H-2 K^k (P04223 22-369): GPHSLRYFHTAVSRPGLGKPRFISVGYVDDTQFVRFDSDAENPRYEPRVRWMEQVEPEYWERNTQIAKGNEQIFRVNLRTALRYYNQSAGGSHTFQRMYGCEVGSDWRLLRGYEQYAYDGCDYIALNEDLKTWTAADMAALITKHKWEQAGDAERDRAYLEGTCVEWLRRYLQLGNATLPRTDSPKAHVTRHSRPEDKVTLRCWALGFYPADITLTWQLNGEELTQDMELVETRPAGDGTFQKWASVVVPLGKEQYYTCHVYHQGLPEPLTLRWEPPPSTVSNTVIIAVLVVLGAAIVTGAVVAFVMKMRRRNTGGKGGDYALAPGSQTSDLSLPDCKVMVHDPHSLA

Sequence of H-2 D^b (P01887 21-119): as the sequence (P01887 21-119) above
Sequence of H-2 D^b (P01899 25-362): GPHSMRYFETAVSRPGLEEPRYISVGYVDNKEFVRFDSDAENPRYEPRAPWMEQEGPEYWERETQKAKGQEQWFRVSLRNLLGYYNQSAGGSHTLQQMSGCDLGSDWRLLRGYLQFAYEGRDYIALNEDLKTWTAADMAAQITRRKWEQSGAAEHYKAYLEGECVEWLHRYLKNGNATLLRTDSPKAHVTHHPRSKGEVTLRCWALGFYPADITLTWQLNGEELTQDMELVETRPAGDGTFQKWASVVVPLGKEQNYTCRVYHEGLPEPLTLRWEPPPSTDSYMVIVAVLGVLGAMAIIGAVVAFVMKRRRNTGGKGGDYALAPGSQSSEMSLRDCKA
Sequence of H-2 K^d (P01887 21-119): as the sequence (P01887 21-119) above
Sequence of H-2 K^d (P01902 22-368): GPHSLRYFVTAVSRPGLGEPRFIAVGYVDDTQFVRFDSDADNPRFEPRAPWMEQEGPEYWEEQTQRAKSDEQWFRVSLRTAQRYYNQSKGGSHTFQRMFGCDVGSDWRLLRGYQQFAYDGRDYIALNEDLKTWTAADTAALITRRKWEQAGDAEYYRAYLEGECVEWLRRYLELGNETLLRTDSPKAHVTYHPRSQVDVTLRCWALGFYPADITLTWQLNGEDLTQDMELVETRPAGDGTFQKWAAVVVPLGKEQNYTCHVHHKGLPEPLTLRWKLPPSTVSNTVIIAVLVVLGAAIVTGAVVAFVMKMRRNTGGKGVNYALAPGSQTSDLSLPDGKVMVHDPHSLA
Sequence of H-2 D^d (P01900 whole entry, looked up): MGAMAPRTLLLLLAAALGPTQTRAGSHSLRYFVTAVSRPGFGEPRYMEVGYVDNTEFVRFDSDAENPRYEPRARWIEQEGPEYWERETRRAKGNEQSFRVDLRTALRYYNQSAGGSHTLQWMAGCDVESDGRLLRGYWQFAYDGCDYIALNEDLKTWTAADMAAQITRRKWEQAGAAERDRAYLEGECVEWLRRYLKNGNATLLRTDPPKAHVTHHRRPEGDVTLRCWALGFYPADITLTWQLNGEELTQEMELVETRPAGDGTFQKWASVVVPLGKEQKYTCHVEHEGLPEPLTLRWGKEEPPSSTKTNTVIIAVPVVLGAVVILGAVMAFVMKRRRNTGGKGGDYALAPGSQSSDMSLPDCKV

| Sequence | Normalized average relative binding affinity(ARB) [1] | Normalized average relative binding affinity(ARB) [2] | Normalized average relative binding affinity(ARB) [3] | Normalized average relative binding affinity(ARB) [4] | Normalized average relative binding affinity(ARB) [5] | Normalized average relative binding affinity(ARB) [6] | Normalized average relative binding affinity(ARB) [7] | Normalized average relative binding affinity(ARB) [8] | Normalized average relative binding affinity(ARB) [9] | Normalized average relative binding affinity(ARB) [10] | Normalized average relative binding affinity(ARB) [11] | Normalized average relative binding affinity(ARB) [12] | Normalized average relative binding affinity(ARB) [13] | Normalized average relative binding affinity(ARB) [14] | Normalized average relative binding affinity(ARB) [15] | Normalized average relative binding affinity(ARB) [16] |
| --- | --- | --- | --- | --- | --- | --- | --- | --- | --- | --- | --- | --- | --- | --- | --- | --- |
| XXXXXMXXX [3064.0111] | 0.18 | 0.44 | 0.14 | 0.031 | 0.44 | 0.43 | 0.18 | 0.52 | 0.23 | 0.43 | 0.41 | 0.24 | 0.52 | 0.48 | 0.31 | 0.36 |
| XXXXXXYXX [3064.0140] | 0.20 | 0.55 | 0.62 | 0.27 | 0.28 | 0.17 | 0.32 | 1.0 | 0.12 | 0.32 | 0.94 | 0.069 | 1.0 | 0.076 | 0.11 | 0.092 |
| XXXXXXXDX [3064.0143] | 0.052 | 0.10 | 0.093 | 0.17 | 0.049 | 0.14 | 0.073 | 0.17 | 0.082 | 0.038 | 0.063 | 0.087 | 0.090 | 0.44 | 0.62 | 0.26 |
| XXXXXKXXX [3064.0109] | 0.10 | 0.30 | 0.24 | 0.073 | 0.28 | 0.26 | 0.14 | 0.54 | 0.15 | 0.62 | 0.13 | 0.21 | 0.51 | 0.30 | 0.36 | 0.34 |
| XXXXEXXXX [3064.0084] | 0.099 | 0.066 | 0.20 | 0.014 | 0.42 | 0.41 | 0.34 | 0.20 | 0.15 | 0.26 | 0.21 | 0.23 | 0.021 | 0.059 | 0.031 | 0.11 |
| XXXXXCXXX [3064.0102] | 0.13 | 0.19 | 0.44 | 0.039 | 0.40 | 0.096 | 0.15 | 0.26 | 0.13 | 0.10 | 0.17 | 0.38 | 0.66 | 0.43 | 0.26 | 0.40 |
| XXXXWXXXX [3064.0099] | 0.16 | 0.65 | 0.26 | 0.023 | 0.49 | 0.44 | 0.29 | 0.19 | 0.074 | 0.14 | 0.30 | 1.0 | 0.013 | 0.098 | 0.21 | 1.0 |
| XXXXXXDXX [3064.0123] | 0.014 | 0.026 | 0.37 | 0.072 | 0.10 | 0.051 | 0.12 | 0.15 | 0.049 | 0.28 | 0.066 | 0.022 | 0.66 | 0.053 | 0.051 | 0.030 |

— publication PMC2248166, “Quantitative peptide binding motifs for 19 human and mouse MHC class I molecules derived using positional scanning combinatorial peptide libraries” (Immunome Research, 2008)
